Laboratory results reported in patent US11628186B2, “Method and composition for the reduction of viral replication, duration and spread of the COVID-19 and the flu” (priority 2017, dated 2023).
“And” between values parts separate entries of the source, which are not always exact repeats. Equal entries are not always repeated.

Assays:
[1] = tested on: patients with chronic Hypoxemia; experiment: Various drugs with or without pre-inhaled pyruvate formulas (Table VII); type: in vivo, human; design: SaO2 Measurements taken after medication and compared to baseline / SaO2 Measurements taken after taking the medication and compared to baseline: unit not given here
Procedure: With the hundreds of patients tested in our various clinical trials, data was gathered as to the type of medications the patients used and the frequency of their use over a six-month period. The patients were asked to rate their medications form 1-10 with 1 being the most irritating with the most side effects and 10 being the best with no irritation and no side effects. In these clinical trials, various drugs were evaluated for irritation, mucus production, and efficacy in humans. The drugs were all evaluated using their current formulations and concentrations against the same formulations with the addition of sodium pyruvate, with the calcium, phosphate and magnesium formula given just prior to the use of their medications. They were instructed to 20 inhale this formula just prior to the use of their medications and to evaluate the effect of their medications on the 1-10 scale.
Patients on the various inhaled medications whether inhaled or taken orally or by IV infusion, were enlisted in the evaluation of the inhaled sodium pyruvate calcium, phosphate and magnesium formula. The patients were tested for their SaO2 levels and those that had SaO2 levels below 92% were asked to enlist in the study. […] After the SaO2 levels were determined prior to and one hour after taking their medications, the patients returned the following day, SaO2 measurements were taken one hour prior to taking their medications. The patients were then handed the hypotonic inhalation formula of sodium pyruvate with calcium, phosphate magnesium formula and instructed to inhale it one hour before taking their medications, SaO2 measurements were then taken one hour after taking their medications.

[2] = tested on: patients with lung diseases including COPD; experiment: Comparison of inhaled salts of pyruvate, 5 ml of 0.5 mM solution (Table I)
Procedure: All previous studies using pyruvate to treat Allergic Rhinitis, Asthmatic and COPD patients used only the sodium salt form of pyruvic acid in saline. The drug products that were tested in the six Phase I/II clinical trial were differing concentrations of sodium pyruvate dissolved in 0.9% sodium chloride solution (Saline). These drug products contained 0.5 mM, 1.5 mM, or 5.0 mM of sodium pyruvate in physiological saline. They were administered to normal volunteers and COPD and asthmatics by inhalation therapy. […] Various sodium pyruvate solutions were evaluated in the lungs for their ability to enhance FEV1 values and reduce coughing, and lung tightness.
The amount of the salts delivered in the 5 ml's of the 0.5 mM pyruvate solutions were compared to the amounts of the salts in 5 ml's of human blood. […] When ethyl pyruvate reacts with oxygen radical like hydrogen peroxide, it is converted to ethane and alcohol and Co2 and acetate. Ethane and alcohol are lung irritants.
This formula can also be made by adding 3% calcium phosphate or dicalcium phosphate to the standard 0.5 mM to 30 mM sodium pyruvate saline solution see Table I.

[3] = tested on: patients with lung diseases including COPD; experiment: Comparison of inhaled salts of pyruvate, 5 ml of 5 mM solution (Table II)
[4] = Drug in commercial formula taken in prescribed way
[5] = Drug in commercial formula with Pre-inhaled sodium pyruvate, calcium & phosphate & magnesium
[6] = Drug in commercial formula with pre-inhaled sodium pyruvate saline only
[7] = Drugs commercial formula given as instructed in the package
[8] = Drugs in commercial formula Pre-inhaled sodium pyruvate & calcium & phosphate & magnesium
[9] = Drugs in commercial formula with pre-inhaled sodium pyruvate in saline only
[10] = 5 ml of 0.5 mM solution, inhaled

Row | Compound | SaO2 Measurements taken after medication and compared to baseline [1, 4] | SaO2 measurements taken after taking medication and compared to baseline [1, 5] | SaO2 Measurements taken after taking the medication and compared to baseline [1, 6] | Lung functions (rating 1-10) [1, 7] | Lung functions (rating 1-10) [1, 8] | Lung functions (rating 1-10) [1, 9] | also measured
1 | CC(C)(C)NCC(O)c1ccc(O)c(CO)c1 (stereo not drawn) [Albuterol] | 0 | +4 | +1 | 8 | 8 | 8 | –
2 | C[C@H]1[C@H](NC(=O)/C(=N\OC(C)(C)C(=O)O)c2csc(N)n2)C(=O)N1S(=O)(=O)O [Aztreonam] | −1 | +4 | 0 | 8 | 7 | 8 | –
3 | Oc1ccc2c(c1)[C@@]13CCCC[C@@]1(O)[C@@H](C2)N(CC1CCC1)CC3 [Butorphanol] | −2 | 0 | 0 | 6 | 9 | 7 | –
4 | Clc1ccccc1C(c1ccccc1)(c1ccccc1)n1ccnc1 [Chlotrimizole] | −2 | +1 | +1 | 4 | 8 | 6 | –
5 | O=C(O)c1cc(=O)c2c(OCC(O)COc3cccc4oc(C(=O)O)cc(=O)c34)cccc2o1 [Cromoglycate] | 0 | +5 | 0 | 3 | 7 | 6 | –
6 | CNC[C@H](O)c1ccc(O)c(O)c1 [Epinephrine] | – | – | – | – | – | – | Lung functions (rating 1-10) ([1]; in vivo): 3 and 4 and 5; SaO2 Measurements taken after medication and compared to baseline ([1]; in vivo): +1; SaO2 Measurements taken after taking the medication and compared to baseline ([1]; in vivo): 0; SaO2 measurements taken after taking medication and compared to baseline ([1]; in vivo): +6
7 | CC1(C)O[C@@H]2C[C@H]3[C@@H]4C[C@H](F)C5=CC(=O)C=C[C@]5(C)[C@H]4[C@@H](O)C[C@]3(C)[C@]2(C(=O)CO)O1 [Flunisolide] | −1 | +4 | +1 | 6 | 6 | 6 | –
8 | C/C(=C\C(=O)OCCCCCCCCC(=O)O)C[C@@H]1OC[C@H](C[C@@H]2O[C@H]2[C@@H](C)[C@H](C)O)[C@@H](O)[C@H]1O [Mupirocin] | 0 | +4 | 0 | 4 | 8 | 6 | –
9 | CC(=O)N[C@@H](CS)C(=O)O [N-acetylcysteine, reference compound] | +1 | +4 | 0 | 4 | 8 | 6 | Increased in FEV-1% lung function ([2]; 5 ml of 0.5 mM solution in physiological saline, inhaled): 6%; Irritation [2, 10]: None; Percentage Increase in SaO2 over baseline [2, 10]: 0%; Percentage decrease or increase of Nitric Oxide over baseline [2, 10]: 0%; Relief of congestion, coughing and lung tightness [2, 10]: 8; Overall Rating 1-10 ([2]; 5 ml of 0.5 mM solution, 1 most negative, 10 best): 7; Increased in FEV-1% ([3]; 5 ml of 5 mM solution in saline, inhaled): 2%; Irritation ([3]; 5 ml of 5 mM solution, inhaled): yes; Percentage Increase in SaO2 over baseline ([3]; 5 ml of 5 mM solution, inhaled): 0%; Percentage increase of Nitric Oxide over baseline ([3]; 5 ml of 5 mM solution, inhaled): 1%; Relief of congestion, coughing and lung tightness ([3]; 5 ml of 5 mM solution, inhaled): 7; Overall Rating 1-10 ([3]; 5 ml of 5 mM solution, 1 most negative, 10 best): 7
10 | N=C(N)c1ccc(OCCCCCOc2ccc(C(=N)N)cc2)cc1 [Pentamidine isethionate] | −1 | +2 | +1 | 4 | 8 | 5 | –
11 | NC(=O)c1ncn([C@@H]2O[C@H](CO)[C@@H](O)[C@H]2O)n1 [Ribavirin] | −3 | +2 | 0 | 5 | 7 | 6 | –
12 | NC[C@H]1O[C@H](O[C@H]2[C@H](O)[C@@H](O[C@H]3O[C@H](CO)[C@@H](O)[C@H](N)[C@H]3O)[C@H](N)C[C@@H]2N)[C@H](N)C[C@@H]1O [Tobramycin] | −2 | +3 | 0 | 5 | 6 | 5 | –
13 | CN[C@H](CC(C)C)C(=O)N[C@H]1C(=O)N[C@@H](CC(N)=O)C(=O)N[C@H]2C(=O)N[C@H]3C(=O)N[C@H](C(=O)N[C@H](C(=O)O)c4cc(O)cc(O)c4-c4cc3ccc4O)[C@H](O)c3ccc(c(Cl)c3)Oc3cc2cc(c3O[C@@H]2O[C@H](CO)[C@@H](O)[C@H](O)[C@H]2O[C@H]2C[C@](C)(N)[C@H](O)[C@H](C)O2)Oc2ccc(cc2Cl)[C@H]1O [Vancomycin] | −1 | +1 | 0 | 6 | 8 | 5 | –
14 | CC(=O)N[C@H]1[C@H]([C@H](O)[C@H](O)CO)OC(C(=O)O)=C[C@@H]1N=C(N)N [Zanamivir] | −2 | +5 | 0 | 4 | 7 | 5 | –
15 | CCOC(=O)C(C)=O [ethyl pyruvate, reference compound] | – | – | – | – | – | – | FEV1 ([2]; 5 mls of a 0.5 mM pyruvate inhalation solution in COPD and asthmatic patients): did not increase FEV-1; Irritation ([2]; in vivo): irritating
16 | Insulin | −2 | +4 | +1 | 5 | 7 | 6 | –
17 | Levorphanol Tartrate | −6 | +6 | +1 | 2 | 8 | 6 | –
